System: Plasmopara viticola
Experiment: Vine downy mildew disease control, foliar spray on vines
Format: in vivo
Settings: aqueous solution sprayed onto vines to run off, then inoculated with 100,000 spores per ml, compared with untreated plants
Description: Aqueous solutions of the compound of Example 1 were sprayed at various concentrations onto vines to run off using a hand-sprayer. Plants were then inoculated by hand spraying with a spore suspension of 100,000 spores per ml of Plasmopara viticola. For the purposes of comparison the vines were sprayed also with the commercially available propamocarb hydrochloride.
Plants were assessed for degree of disease control compared with untreated plants.

## CCCOC(=O)NCCCN(C)C.CCO[PH](=O)O [Compound of invention, dimethyl-[3-(propoxycarbonylamino)propyl]ammonium O-ethylphosphonate]
Rate 400 ppm
  % Control: 27.6%
Rate 800 ppm
  % Control: 81.5%

## CCCOC(=O)NCCCN(C)C.Cl [propamocarb hydrochloride, propyl 3-(dimethylamino)propylcarbamate hydrochloride]
Rate 400 ppm
  % Control: 4.2%
Rate 800 ppm
  % Control: 14.6%

From patent US6339103B1, “Fungicides” (Aventis CropScience UK Limited, priority 1998, dated 2002)
